Results reported in US20100168112A1, “2-Substituted and 4-substituted aryl nitrone compounds” (RENOVIS, INC., priority 2004, published 2010).
Where two headings read alike, the source gives them in different places.

Key:
[1] = Brain penetration after single oral dose in rats; assay type: in vivo; settings: Sprague-Dawley, rat, single oral dose (compound 26 5 mg/kg, 62 15 mg/kg, 20, 63 and 66 50 mg/kg), at or near Tmax
Protocol: Nitrone compounds of this invention were formulated individually as suspensions and administered as a single dose to Sprague-Dawley rats via oral gavage (compound 26 at 5 mg/kg, compound 62 at 15 mg/kg, compounds 20, 63 and 66 at 50 mg/kg). Plasma samples were obtained at or near Tmax projected at the given dose for each compound and the animals were euthanized using carbon dioxide. Immediately following euthanization, cerebrospinal fluid (CSF) was obtained by cisternal puncture of the atlanto-occipital membrane and drawn from the magnum cisternum. The brain was first perfused intracardially with ˜150 mL of ice-cold 0.1 M Phosphate Buffered Saline (PBS) at pH7.4. Following the removal of the dura, the brain was weighed. The brain was then dissected into smaller pieces and rinsed twice with ˜10 mL PBS. The brain, CSF, and plasma samples were frozen on dry ice and stored at −80° C. before analysis. CSF and plasma samples were subjected to a protein precipitation method prior to LC/MS/MS analysis. Blank rat plasma and CSF were used accordingly for diluting the samples when needed. Bioanalytical standard curves were prepared by spiking a stock solution of the nitrone compound to blank rat plasma or CSF to achieve a quantitation curve range and analyzed the standards in the same manner as the samples. Brain samples underwent homogenization in 2 mL water and liquid-liquid extraction with ethyl acetate three times. The combined organic phase for each sample was evaporated under a stream of nitrogen at 40° C. and the residues were reconstituted with an appropriate amount of mobile phase B (referring to LC/MS/MS method section). A bioanalytical standard curve for brain analysis was prepared by spiking 100 μL of stock solution directly into sliced blank rat brain purchased from Pelfreez. The spiked brains then underwent the same processing procedures for the dosed samples.
The reconstituted samples were vortexed and incubated to fully dissolve the analytes. The samples were centrifuged, and then further diluted with Mobile phase B if necessary before LC/MS/MS analysis. Nitrone compound levels in the brain were calculated based on the measured concentration, the volume of reconstitution and brain weight to yield a unit of ng (of compound) per g of brain. To calculate the brain/plasma ratio (w/v), it was assumed that 1 g of brain tissue takes approximately 1 mL of volume.

[2] = test system: carrageenan-sensitized inflammatory model of rat; assay: Carrageenan-sensitized thermal hyperalgesia (Hargreaves test); assay type: in vivo; settings: 50 mg/kg oral; for PWL (thermal paw withdrawal latency), carrageenan paw: mean ± SEM
Protocol: In this experiment, animals were habituated to the test environment for 2 days. Each rat was individually placed on a transparent perplex glass floor, covered with a plastic box (10×10×18 cm), and allowed 0.5-1 hr to habituate. After the acclimation period, basal thermal withdrawal latency (PWL, time interval between heat stimulation and paw withdrawal) was measured by exposing the plantar surface of a rats hind paw to a beam of radiant heat generated from a focused projection bulb through a transparent perplex glass surface (Hargreaves test; Hargreaves, K. R., Dubner, R., Brown, F., Flores, C. & Joris, J.: A new and sensitive method for measuring thermal nociception in cutaneous hyperalgesia. Pain, 32: 77-88, 1988). The PWL was averaged from at least two trials separated by a 2 min interval. A timer was used to measure the withdrawal latency and a cut of time of 20-sec was used to prevent tissue damage. Before the test on STZ-diabetic rats, the intensity of the radiating heat was adjusted to the level that caused naive animal to withdraw its paw at around 10 seconds.
After a stable basal PWL was obtained, the animals were briefly anesthetized with isoflurane (2-5% to effect). One side of their hind paws received an intraplantar injection of lambda carrageenan (2 mg in 100 microliter sterile saline, Sigma, St. Louis, Mo.). The contralateral side received no injection and served as an intra-subject control. The animals were then returned to their home cages and transferred to the individual testing chambers for heat thermal hyperalgesic testing, 2.5 hr after carrageenan injection. 3-hr post-carrageenan injection, PWLs of both hind paws (i.e., ipsilateral and contralateral) were measured at several time points post-carrageenan injection (15-min to 24-hr).
For compound testing, rats were randomly enrolled into groups that, immediately after the 3-hr post-carrageenan PWL was obtained, received oral dosing of Compound 62 (50 mg/kg), Compound 63 (50 mg/kg), vehicle (1 ml/kg), or indomethacin (30 mg/kg). Compound 62 and Compound 63 were prepared as a suspension in vehicle (96% of 0.5% CMC and 4% of 10% Tween 80) while indomethacin was prepared as a 30 mg/ml in normal saline.

[3] = CSF and plasma, read-out: CSF/Plasma (%)
[4] = brain and plasma, 1 g brain assumed 1 mL, read-out: Brain/Plasma (%)
[5] = post-dosing time 0 min (3 hr post-carrageenan)

Row | Compound | Kp [1, 3] | Kp [1, 4] | effect on carrageenan-sensitized heat hyperalgesia compared to vehicle-treated carrageenan-paw (in words) [2] | PWL (thermal paw withdrawal latency), carrageenan paw [2, 5] [s] | PWL (thermal paw withdrawal latency), carrageenan paw ([2]; post-dosing time 15 min) [s] | PWL (thermal paw withdrawal latency), carrageenan paw ([2]; post-dosing time 120 min) [s] | PWL (thermal paw withdrawal latency), carrageenan paw ([2]; post-dosing time 240 min) [s] | PWL (thermal paw withdrawal latency), carrageenan paw ([2]; post-dosing time 1400 min) [s] | PWL (thermal paw withdrawal latency), carrageenan paw ([2]; post-dosing time 60 min) [s] | PWL (thermal paw withdrawal latency), carrageenan paw ([2]; post-dosing time 180 min) [s]
1 | CC(C)(C)/[N+]([O-])=C/c1ccc(S(N)(=O)=O)cc1 [Compound 20, N-(tert-Butyl)-C-[4-(sulfamoyl)phenyl]nitrone] | 0.144 | 0.229 |  |  |  |  |  |  |  | 
2 | CC(C)(C)/[N+]([O-])=C/c1ccc(S(=O)(=O)Nc2cccnc2)cc1 [Compound 26, N-(tert-Butyl)-C-[4-(pyridin-3-ylsulfamoyl)phenyl]nitrone] | 0.0012 | 0.0056 |  |  |  |  |  |  |  | 
3 | CC(C)(C)/[N+]([O-])=C/c1ccc(S(C)(=O)=O)cc1 [Compound 62, N-tert-Butyl-C-[4-(methanesulfonyl)phenyl]nitrone] | 0.786 | 0.625 | statistically significant effect | 4.65 ± 0.63 | 7.33 ± 1.43 | 7.55 ± 1.08 | 5.38 ± 1.11 | 5.33 ± 1.09 |  | 
4 | CC(C)(C)/[N+]([O-])=C/c1ccc(S(C)(=O)=O)cc1S(C)(=O)=O [Compound 63, N-tert-Butyl-C-(2,4-bis-methanesulfonylphenyl)nitrone] | 0.336 | 0.189 | statistically significant effect | 4.98 ± 0.85 | 4.93 ± 1.22 |  |  | 5.70 ± 0.71 | 4.15 ± 1.04 | 3.65 ± 0.64
5 | CC(C)(C)/[N+]([O-])=C/c1ccccc1S(C)(=O)=O [Compound 66, N-tert-Butyl-C-(2-methanesulfonylphenyl)nitrone] | 0.936 | 0.224 |  |  |  |  |  |  |  | 
